Results from patent publication US5668173A, “Method of increasing the conversion of homocysteine to methionine and uses thereof” (priority 1996, dated 1997).
Entries after “also recorded” stand apart in the source; their conditions may differ. Like-named read-outs stand apart in the source and are kept apart here.

How the values were obtained:
[1] = high dietary levels; cited from earlier work
[2] = target: T1, pig liver betaine-homocysteine methyltransferase (Sus scrofa, UniProt A0A5G2RCW6); experiment: Initial rate kinetics of purified pig liver betaine-homocysteine methyltransferase; format: biochemical; conditions: for Vmax(rel): Table II, relative, corrected for an equivalent amount of enzyme
T1 construct: given as hexamer, now known as homotetramer
T1 sequence (A0A5G2RCW6 1-407): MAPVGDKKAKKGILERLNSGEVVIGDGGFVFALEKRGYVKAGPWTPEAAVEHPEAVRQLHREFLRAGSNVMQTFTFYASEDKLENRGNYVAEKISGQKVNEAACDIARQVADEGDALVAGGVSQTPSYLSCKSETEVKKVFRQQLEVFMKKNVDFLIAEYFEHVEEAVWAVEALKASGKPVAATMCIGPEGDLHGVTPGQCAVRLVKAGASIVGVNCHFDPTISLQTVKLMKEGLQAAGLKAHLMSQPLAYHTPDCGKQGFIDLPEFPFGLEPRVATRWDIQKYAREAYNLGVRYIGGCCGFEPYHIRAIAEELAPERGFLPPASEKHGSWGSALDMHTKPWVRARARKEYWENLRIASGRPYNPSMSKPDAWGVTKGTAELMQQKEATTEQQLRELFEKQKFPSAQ
Protocol: (§1) Betaine-homocysteine methyltransferase activity was measured as described by Finkelstein and Mudd (43) with the following minor modifications. […] Following a 2 hour incubation, samples were chilled to 0° C. and 2.5 mL ice-cold water was added. The samples were loaded onto a 0.5 cm (diameter) column containing 1 mL of Dowex 1-X4 (OH--) resin (100-200 mesh). The unreacted betaine (or dimethylacetothetin) was washed from the column with water (3×5 mL), and dimethylglycine (or methylthioacetate) and methionine eluted into scintiallation vials with 3 mL 1.5 N HCl. Blanks contained all of the reaction components except enzyme and their values were subtracted from the sample values. All samples were assayed in duplicate.
Michealis and Vmax constants were estimated from plotting initial rate data according to the method of Hanes (44).
Betaine-homocysteine methyltransferase has been purified to homogeneity from pig liver (45).
Using purified enzyme, initial rate studies were performed to determine the Michaelis constants of betaine, dimethylacetothetin, and homocysteine and to investigate the kinetic mechanism of the enzyme.

[3] = system: rat betaine-homocysteine methyltransferase; conditions: rat enzyme containing extracts; read-out: Michealis constant; cited from earlier work
[4] = system: human betaine-homocysteine methyltransferase; conditions: human enzyme containing extracts; read-out: Michealis constant; cited from earlier work
[5] = system: betaine-homocysteine methyltransferase; conditions: cited from earlier work; for methionine produced compared with betaine as methyl donor: saturating levels of substrates, corrected for enzyme concentration
[6] = cited from earlier work; for urinary level during betaine treatment: urine
growing rats = conditions: cited from earlier work; for replacement of dietary requirement for choline: growing rats, diets lacking methionine but containing homocystine; for food intake and growth: thetins 0.5-0.93% (w/w) of the diet, 3 to 4 weeks
[7] = system: hepatic betaine-homocysteine methyltransferase; conditions: surfeit dietary levels, crude liver extracts, compared to control; cited from earlier work
pigs = conditions: dietary betaine; cited from earlier work
chickens [8] = conditions: cited from earlier work
cystathionine-β-synthase = conditions: dietary cysteine increased; cited from earlier work
[9] = system: horse betaine-homocysteine methyltrasferase; conditions: saturating levels of substrate; purified horse enzyme; cited from earlier work
Escherichia coli = conditions: cited from earlier work
animals = conditions: prior studies; cited from earlier work
[10] = target: T1, pig liver betaine-homocysteine methyltransferase; experiment: Product inhibition of pig liver betaine-homocysteine methyltransferase activity; format: biochemical; conditions: for pmol methionine: inhibitor 50 μM, L-homocysteine 50 μM, betaine 25 μM
Protocol: as §1
The subsequent metabolism of these products could have significant effects on flux through the betaine-homocysteine methyltransferase reaction because the rate of product removal would determine whether a product accumulates enough to inhibit enzyme activity. When pharmacological doses of betaine is used for the treatment of severe hyperhomocyst(e)inemia, dimethylglycine oxidation appears to be insufficient, and as a result, dimethylglycine accumulates.
Inhibition pf pig liver betaine-homocysteine methyltransferase
activity by dimethyglycine ethylthoacetate in the presence of
It is possible that homocysteine, dimethylglycine, and betaine-homocysteine methyltransferase form an abortive ternary complex.

[11] = system: human betaine-homocysteine methyltransferase; conditions: cited from earlier work
[12] = system: rat betaine-homocysteine methyltransferase; conditions: cited from earlier work
primates = conditions: infusion, 3 month period; cited from earlier work
[13] = sulfur amino acid intake optimal; cited from earlier work
chickens [14] = conditions: dietary; cited from earlier work
[15] = system: cystathionine-β-synthase deficiency; conditions: cited from earlier work
[16] = substrate: N[C@@H](CCS)C(=O)O; experiment: purified protein, by the assay type; conditions: other: saturating levels of one substrate while varying the other; betaine 250 μM or L-homocysteine 500 μM fixed
[17] = substrate: C[N+](C)(C)CC(=O)O; experiment: Initial rate kinetics of purified pig liver betaine-homocysteine methyltransferase; format: biochemical; conditions: other: saturating levels of one substrate while varying the other; betaine 250 μM or L-homocysteine 500 μM fixed
Protocol: (§2) Betaine-homocysteine methyltransferase activity was measured as described by Finkelstein and Mudd (43) with the following minor modifications. […] Following a 2 hour incubation, samples were chilled to 0° C. and 2.5 mL ice-cold water was added. The samples were loaded onto a 0.5 cm (diameter) column containing 1 mL of Dowex 1-X4 (OH--) resin (100-200 mesh). […] Blanks contained all of the reaction components except enzyme and their values were subtracted from the sample values. All samples were assayed in duplicate.

[18] = substrate: C[S+](C)CC(=O)O; experiment: as above; format: biochemical; conditions: other: saturating levels of one substrate while varying the other; betaine 250 μM or L-homocysteine 500 μM fixed
Protocol: as §2

Molecule: CSCCC(=O)O [3-methylthiopropionate]
- toxicity [1]: produces toxic symptoms identical to those produced by excess methionine consumption

Molecule: C[N+](C)(C)CC(=O)O [betaine]
- Vmax(rel) [2]: 1
- Km [3]: 25 to 50 µM
- Km [4]: 25 to 50 µM
- Kcat of betaine-dependent reaction [5]: very low Kcat
- Km ([5]; prior studies, source of enzyme not stated): 20 to 50 µM
- normalization of plasma homocysteine ([6]; betaine treatment of severe hyperhomocyst(e)inemia): rarely attained; also recorded: usually does not fall within the normal range; also recorded: does not usually lower plasma homocysteine to within the normal range
- plasma homocysteine ([6]; pharmacological doses of betaine, hyperhomocyst(e)inemia): reduce plasma homocysteine; also recorded: generally lowers plasma homocysteine compared to pretreatment levels
- urinary level during betaine treatment [6]: dramatic increase
- replacement of dietary requirement for choline (growing rats): can replace the dietary requirement for choline
- food intake and growth (growing rats): not different among experimental groups
- hepatic betaine-homocysteine methyltransferase activity [7]: higher levels of betaine-homocysteine methyltransferase activity
- carcass fat (pigs): can reduce carcass fat
- carcass fat (chickens [8]; dietary betaine, chickens): can reduce carcass fat
- treatment of diarrhea and wet litter (chickens [8]; fowl): effective in the treatment of diarrhea and wet litter

Molecule: C[N+](C)(C)CCO [choline]
- food intake and growth (growing rats): not different among experimental groups

Molecule: N[C@@H](CS)C(=O)O [cysteine]
- cystathionine-β-synthase activity and mRNA levels (cystathionine-β-synthase): decrease

Molecule: C[S+](C)CC(=O)O [dimethylacetothetin]
- Vmax(rel) [2]: 7
- rate of methylation of homocysteine, faster than with betaine ([2]; equimolar concentrations as betaine, inferred from Vmax/Km): at least 700%
- Vmax/Km compared with betaine ([2]; greater than that for betaine): 7 fold
- relative Vmax compared with betaine ([2]; greater than when betaine was used): 47 fold
- specificity (Vmax/Km) compared with betaine ([2]; initial rate studies): greater specificity
- increase in methionine production compared to betaine [9]: 350 fold
- methionine produced compared with betaine as methyl donor [5]: more methionine was produced
- replacement of dietary requirement for choline (growing rats): can replace the dietary requirement for choline; also recorded: replace the dietary requirement for choline (or betaine)
- effectiveness as osmolyte compared with betaine (Escherichia coli): equally effective as betaine
- toxicity to animals (animals): non-toxic to animals

Molecule: CN(C)CC(=O)O [dimethylglycine]
- activity at 50 µM [10]: 30%
- type of inhibition relative to homocysteine ([10]; Dixon plots, betaine 25 μM or 250 μM, L-homocysteine varied): uncompetitive inhibitor; also recorded: uncompetitive inhibition
- pmol methionine [10]: 208 pmol
- inhibition of pig betaine-homocysteine methyltransferase ([10]; product inhibition studies): potent inhibitor
- inhibition of methionine production ([11]; 10 μM dimethylglycine): 50%
- inhibition of human betaine-homocysteine methyltransferase [11]: potent inhibitor
- inhibition of rat betaine-homocysteine methyltransferase [12]: potent inhibitor
- urinary level during betaine treatment [6]: dramatic increase

Molecule: C[S+](C)CCC(=O)O [dimethylpropiothetin]
- increase in methionine production compared to betaine [9]: 54 fold
- Vmax compared with betaine-dependent reaction ([5]; previous studies): higher Vmax
- Vmax compared with dimethylacetothetin-dependent reaction ([5]; previous studies): lower Vmax
- methionine produced compared with betaine as methyl donor [5]: more methionine was produced
- replacement of dietary requirement for choline (growing rats; listed as dimethylpropriothetin): can replace the dietary requirement for choline; also recorded: replace the dietary requirement for choline (or betaine)
- toxicity to animals (animals): non-toxic to animals

Molecule: N[C@@H](CCS)C(=O)O [homocysteine]
- Km [3]: 25 to 50 µM
- Km [4]: 25 to 50 µM
- vascular lesions (primates): vascular lesions have been induced in primates

Molecule: CSCC[C@H](N)C(=O)O [methionine]
- hepatic betaine-homocysteine methyltransferase activity [7]: higher levels of betaine-homocysteine methyltransferase activity
- toxicity [1]: most toxic of all amino acids required for protein synthesis
- absorbed methionine converted to cysteine or completely oxidized [13]: about 30%
- absorbed methionine retained by the animal [13]: about 70%

Molecule: CSCC(=O)O [methylthioacetate]
- activity at 50 µM [10]: 59%
- pmol methionine [10]: 416 pmol
- affinity for betaine-homocysteine methyltransferase relative to dimethylglycine ([10]; than dimethylglycine): lower affinity

Molecule: O=S(=O)(O)O [sulfate]
- cystine requirements (chickens [14]): decrease cystine requirements

Molecule: vitamin B6
- individuals non-responsive to vitamin B6 [15]: 50%
- individuals responding to supplemental B6 [15]: approximately 50%

B1: pig liver betaine-homocysteine methyltransferase (Sus scrofa) (protein)
chain: MAPVGDKKAKKGILERLNSGEVVIGDGGFVFALEKRGYVKAGPWTPEAAVEHPEAVRQLHREFLRAGSNVMQTFTFYASEDKLENRGNYVAEKISGQKVNEAACDIARQVADEGDALVAGGVSQTPSYLSCKSETEVKKVFRQQLEVFMKKNVDFLIAEYFEHVEEAVWAVEALKASGKPVAATMCIGPEGDLHGVTPGQCAVRLVKAGASIVGVNCHFDPTISLQTVKLMKEGLQAAGLKAHLMSQPLAYHTPDCGKQGFIDLPEFPFGLEPRVATRWDIQKYAREAYNLGVRYIGGCCGFEPYHIRAIAEELAPERGFLPPASEKHGSWGSALDMHTKPWVRARARKEYWENLRIASGRPYNPSMSKPDAWGVTKGTAELMQQKEATTEQQLRELFEKQKFPSAQ
notes: given as hexamer, now known as homotetramer
- Km [16]: 32 µM
- Km [17]: 23 µM
- Km [18]: 155 µM
